Data set [1] in a line: [^89Zr]Zr-PSMA-617 PET/CT biodistribution in normal organs (SUV, tissue-to-background ratio). The conditions noted are these: for SUVmax: mean ± SD. The format is in vivo, human (patients). As for the experimental part:
Each patient underwent PET/CT imaging scans at 4 time points: 1 h, 24 h, 48 h, and 72 h post intravenous injection (p.i.) of 111 ± 11 MBq (mean ± standard deviation, range 97–129 MBq) [^89Zr]Zr-PSMA-617. All PET/CT imaging was performed on a Biograph mCT 40 scanner (Siemens Medical Solutions, Knoxville, TN, USA) comprising whole-body PET/CT scans extending from vertex to mid-femur in 3D mode. PET acquisition time duration was 4 min per bed position on the initial day of injection and extended up to 10 min on the last day. CT data were acquired in low-dose technique using an X-ray tube voltage of […] and a modulation of the tube current (CARE Dose4D, Siemens Erlangen; maximal tube current 30 mA) followed by reconstruction with a soft tissue reconstruction kernel (B31f) to a slice thickness of 5 mm (increment 2–4 mm). PET emission data was corrected for decay, randoms, and scatter. PET image reconstruction was performed applying an iterative 3-dimensional ordered-subset expectation maximization (OSEM) algorithm (3 iterations; 24 subsets) with gaussian filtering to a transaxial resolution of 5 mm at full width half maximum (FWHM). The matrix and the pixel size were 200 × 200 and 3.0 mm, respectively. Attenuation correction was performed using the low-dose CT data.
The biodistribution of [^89Zr]Zr-PSMA-617 was quantified by analyzing the standard uptake values (SUV) SUVmax, SUVpeak and SUVmean at 1 h, 24 h, 48 h, and 72 h p.i.. Considering normal-organs, elliptical volumes of interest (VOI) were manually drawn enclosing regions of relatively homogenous uptake. Activity estimation was performed within the VOI applying a 40% or, in case of faintly accumulating organs, a 20% threshold using the SyngoVia software (Enterprise VB 60, Siemens, Erlangen, Germany). The following organs were included in this evaluation: the brain, salivary, and lacrimal glands, nasal mucosa, lung, liver, spleen, small and large intestine, and the kidneys. With regard to the large intestine, SUV was determined at the descending colon. Blood pool and background were evaluated in the descending aorta and the gluteal muscle, respectively. Tissue-to-background ratios (TiBR) were calculated by dividing the SUVmax of the organs by the SUVmean of the background (gluteal muscle).

Data set [2] in a line: Adverse event recording after [^89Zr]Zr-PSMA-617 PET/CT. The format is in vivo, human (patients). The conditions noted are these: 7 patients, 111 ± 11 MBq i.v., during examination and 4 weeks follow-up. As for the experimental part: Any adverse event was recorded during and after examination. Vital parameters as heart rate, blood pressure, body temperature, and oxygen saturation were closely monitored. Within a time interval of 4 weeks after [^89Zr]Zr-PSMA-617 PET/CT, patients were additionally interviewed about potential side effects.

Entries after “also recorded” stand apart in the source; their conditions may differ.

For `O=C([O-])CN1CCN(CC(=O)[O-])CCN(CC(=O)NCC2CCC(C(=O)NC(Cc3ccc4ccccc4c3)C(=O)NCCCCC(NC(=O)NC(CCC(=O)O)C(=O)O)C(=O)O)CC2)CCN(CC(=O)[O-])CC1.[89Zr+4]` (centres unmarked) [[^89Zr]Zr-PSMA-617], the SUVmax in data set [1] (colon, 1 h p.i.) amounted to 3.50 ± 2.21; in data set [1] (colon, 72 h p.i.), 13.57 ± 5.00; in data set [1] (kidneys, 1 h p.i.), 21.15 ± 12.31; in data set [1] (kidneys, 72 h p.i.), 7.43 ± 1.56; in data set [1] (submandibular gland, 24 h p.i.), 17.30 ± 4.69; in data set [1] (submandibular gland, 72 h p.i.), 6.29 ± 1.61. Further, the “Tissue-to-background ratio (TiBR)” value in data set [1] (salivary glands, kidneys, and colon at 72 h p.i., SUVmax organ / SUVmean gluteal muscle) is listed as not below 50. In data set [2], the “Side effects / adverse events” value was “not associated with any side effects; also recorded: no other side effects were observed”.

Source of the values: PMC9606102, “[^89Zr]Zr-PSMA-617 PET/CT in biochemical recurrence of prostate cancer: first clinical experience from a pilot study including biodistribution and dose estimates” (European Journal of Nuclear Medicine and Molecular Imaging, 2022).
